Experimental data published in patent publication US4452812A, “Organic complex of platinum, its preparation and its use for treating malignant tumors” (Sanofi, priority 1980, dated 1984).

System: baboon
Assay: Preliminary toxicological study in the baboon
Assay type: in vivo
Parameters: creatine level / Granulocytes / Platelets: unit not given here
Experimental: In order to find out the maximum tolerable dose, two baboons, identified by no 1 and no 2, received 100 mg/kg and 150 mg/kg respectively without prehydration. Hydration was performed on baboon no 3 which received a dose of 200 mg/kg.
The compound was injected into the femoral vein during 5 to 10 minutes. Baboon No. 3 (200 mg/kg) received 700 ml of physiological serum by intravenous route. Baboons Nos. 1 and 2 received 1000 ml by sub-cutaneous route.
Gastro-intestinal toxicity was the first type of toxicity to appear and generally manifested itself 1 to 2 hours after injection of the compound. […] D0 was the day of treatment and a sample was taken before the compound was injected.
The results on D0 were therefore control values.

[1] = baboon No 1, 100 mg/kg i.v., D2
[2] = baboon No 1, 100 mg/kg i.v., D6
[3] = baboon No 1, 100 mg/kg i.v., D16
[4] = baboon No 1, 100 mg/kg i.v., D30
[5] = baboon No 1, 100 mg/kg i.v., D37
[6] = baboon No 1, 100 mg/kg i.v., D38
[7] = baboon No 1, 100 mg/kg i.v., D41
[8] = baboon No 1, 100 mg/kg i.v., D48
[9] = baboon No 1, 100 mg/kg i.v., D57
[10] = baboon No 1, 100 mg/kg i.v., D62
[11] = baboon No 1, 100 mg/kg i.v., D76
[12] = baboon No 1, 100 mg/kg i.v., D79
[13] = baboon No 1, 100 mg/kg i.v., D85
[14] = baboon No 1, 100 mg/kg i.v., D90
[15] = baboon No 1, 100 mg/kg i.v., D100
[16] = baboon No 1, 100 mg/kg i.v., D105
[17] = baboon No 1, 100 mg/kg i.v., D106
[18] = baboon No 1, 100 mg/kg i.v., D111
[19] = baboon No 1, 100 mg/kg i.v., D122
[20] = baboon No 1, 100 mg/kg i.v., D129
[21] = baboon No 1, 100 mg/kg i.v., D134
[22] = baboon No 1, 100 mg/kg i.v., D140
[23] = baboon No 2, 150 mg/kg i.v., D1
[24] = baboon No 2, 150 mg/kg i.v., D4
[25] = baboon No 2, 150 mg/kg i.v., D11
[26] = baboon No 3, 200 mg/kg i.v., D4
[27] = baboon No 3, 200 mg/kg i.v., D6
[28] = baboon No 3, 200 mg/kg i.v., D12
[29] = baboon No 3, 200 mg/kg i.v., D15
[30] = baboon No 3, 200 mg/kg i.v., D18
[31] = baboon No 3, 200 mg/kg i.v., D24
[32] = baboon No 3, 200 mg/kg i.v., D30
[33] = baboon No 3, 200 mg/kg i.v., D40

NC1CCCCC1N.O=C([O-])CC(C(=O)[O-])C([O-])C(=O)[O-].[H+].[H+].[Pt+2] (stereo not drawn) [PHIC, cis-isocitrato (1,2-diaminocyclohexane) platinum (II)]
nephrotoxic effect (100 mg/kg i.v., absence of hydration): no nephrotoxic effect was observed | day on which creatinine levels return to normal values (200 mg/kg i.v. with hydration): 18 days | nephrotoxicity (200 mg/kg i.v. with hydration): nephtotoxicity is detected | vomiting (severity) (100-200 mg/kg i.v.): vomiting was not profuse | Quick plasma prothrombin time (baboon No 1, 100 mg/kg i.v., D1): 75% | Creatinine [1]: 110 μmols/l | Fibrinogen I [1]: 2.25 g/L | Quick plasma prothrombin time [1]: 80% | Creatinine [2]: 91 μmols/l | Fibrinogen I [2]: 2.40 g/L | Granulocytes [2]: 2480 | Platelets [2]: 526000 | Proaccelerin V [2]: 100% | Proconvertin VII + Stuart factor X [2]: 70% | Prothrombin II [2]: 95% | Quick plasma prothrombin time [2]: 65% | Weight [2]: 7.7 kg | Creatinine [3]: 105 μmols/l | Fibrinogen I [3]: 1.95 g/L | Granulocytes [3]: 4560 | Platelets [3]: 414000 | Quick plasma prothrombin time [3]: 95% | Weight [3]: 8.4 kg | Creatinine [4]: 138 μmols/l | Fibrinogen I [4]: 1.52 g/L | Granulocytes [4]: 3969 | Platelets [4]: 414000 | Quick plasma prothrombin time [4]: 85% | Creatinine [5]: 99 μmols/l | Fibrinogen I [5]: 1.46 g/L | Granulocytes [5]: 2989 | Platelets [5]: 362000 | Quick plasma prothrombin time [5]: 85% | Weight [5]: 8.35 kg | Creatinine [6]: 85 μmols/l | Fibrinogen I [6]: 1.85 g/L | Granulocytes [6]: 4824 | Platelets [6]: 299000 | Quick plasma prothrombin time [6]: 85% | Creatinine [7]: 102 μmols/l | Fibrinogen I [7]: 2.72 g/L | Granulocytes [7]: 4212 | Platelets [7]: 371000 | Quick plasma prothrombin time [7]: 100% | Creatinine [8]: 136 μmols/l | Fibrinogen I [8]: 2.70 g/L | Granulocytes [8]: 3696 | Platelets [8]: 708000 | Quick plasma prothrombin time [8]: 95% | Weight [8]: 7.6 kg | Creatinine [9]: 96 μmols/l | Fibrinogen I [9]: 2.67 g/L | Granulocytes [9]: 2498 | Platelets [9]: 329000 | Quick plasma prothrombin time [9]: 90% | Weight (baboon No 1, 100 mg/kg i.v., D58): 8.45 kg | Creatinine [10]: 136 μmols/l | Fibrinogen I [10]: 1.86 g/L | Granulocytes [10]: 3726 | Platelets [10]: 378000 | Quick plasma prothrombin time [10]: 50% | Creatinine [11]: 121 μmols/l | Fibrinogen I [11]: 1.75 g/L | Granulocytes [11]: 1071 | Platelets [11]: 375000 | Quick plasma prothrombin time [11]: 95% | Creatinine [12]: 138 μmols/l | Fibrinogen I [12]: 2.10 g/L | Granulocytes [12]: 2541 | Platelets [12]: 382000 | Quick plasma prothrombin time [12]: 95% | Weight (baboon No 1, 100 mg/kg i.v., D84): 7.93 kg | Creatinine [13]: 97 μmols/l | Fibrinogen I [13]: 2.08 g/L | Granulocytes [13]: 3599 | Platelets [13]: 549000 | Proaccelerin V [13]: 100% | Proconvertin VII + Stuart factor X [13]: 90% | Quick plasma prothrombin time [13]: 85% | Creatinine [14]: 96 μmols/l | Granulocytes [14]: 1917 | Platelets [14]: 685000 | Creatinine [15]: 110 μmols/l | Fibrinogen I [15]: 2.50 g/L | Granulocytes [15]: 3230 | Platelets [15]: 340000 | Quick plasma prothrombin time [15]: 95% | Creatinine [16]: 60 μmols/l | Fibrinogen I [16]: 2.25 g/L | Granulocytes [16]: 2030 | Platelets [16]: 266000 | Quick plasma prothrombin time [16]: 95% | Weight [16]: 8.59 kg | Creatinine [17]: 120 μmols/l | Fibrinogen I [17]: 2.20 g/L | Granulocytes [17]: 10120 | Platelets [17]: 231000 | Quick plasma prothrombin time [17]: 75% | Creatinine [18]: 102 μmols/l | Fibrinogen I [18]: 2.20 g/L | Granulocytes [18]: 1121 | Platelets [18]: 345000 | Proaccelerin V [18]: 100% | Proconvertin VII + Stuart factor X [18]: 39% | Prothrombin II [18]: 70% | Quick plasma prothrombin time [18]: 48% | Fibrinogen I [19]: 2.10 g/L | Granulocytes [19]: 1232 | Platelets [19]: 348000 | Quick plasma prothrombin time [19]: 100% | BUN (baboon No 1, 100 mg/kg i.v., D122, normal range 3-7 mmol/l): 4.5 mmol/L | Creatinine [20]: 90 μmols/l | Fibrinogen I [20]: 2.15 g/L | Granulocytes [20]: 5406 | Platelets [20]: 508000 | Quick plasma prothrombin time [20]: 100% | Weight (baboon No 1, 100 mg/kg i.v., D133): 7.65 kg | Creatinine [21]: 126 μmols/l | Granulocytes [21]: 7245 | Platelets [21]: 580000 | Creatinine [22]: 114 μmols/l | Fibrinogen I [22]: 2.50 g/L | Granulocytes [22]: 4794 | Platelets [22]: 441000 | Quick plasma prothrombin time [22]: 100% | creatine level (baboon No 2, 150 mg/kg i.v.): 1552 | death (baboon No 2, 150 mg/kg i.v.): died on D11 | food and water intake (baboon No 2, 150 mg/kg i.v.): neither eaten nor drunk for 11 days | Creatinine [23]: 96 μmols/l | Fibrinogen I [23]: 1.46 g/L | Granulocytes [23]: 9672 | Platelets [23]: 261000 | Proaccelerin V [23]: 70% | Proconvertin VII + Stuart factor X [23]: 62% | Prothrombin II [23]: 42% | Quick plasma prothrombin time [23]: 60% | Creatinine [24]: 245 μmols/l | Fibrinogen I [24]: 2.82 g/L | Granulocytes [24]: 1988 | Platelets [24]: 212000 | Quick plasma prothrombin time [24]: 85% | Creatinine [25]: 1552 μmols/l | Fibrinogen I [25]: 4.20 g/L | Granulocytes [25]: 555 | Platelets [25]: 174000 | Proaccelerin V [25]: 100% | Proconvertin VII + Stuart factor X [25]: 55% | Prothrombin II [25]: 55% | Quick plasma prothrombin time [25]: 55% | Weight [25]: 5.5 kg | Creatinine [26]: 140 μmols/l | Fibrinogen I [26]: 2.70 g/L | Granulocytes [26]: 4536 | Platelets [26]: 70000 | Proaccelerin V [26]: 100% | Proconvertin VII + Stuart factor X [26]: < 5% | Prothrombin II [26]: 30% | Quick plasma prothrombin time [26]: 10% | Weight [26]: 6.25 kg | Creatinine [27]: 350 μmols/l | Fibrinogen I [27]: 3.00 g/L | Granulocytes [27]: 5236 | Platelets [27]: 208000 | Proaccelerin V [27]: 100% | Proconvertin VII + Stuart factor X [27]: 25% | Prothrombin II [27]: 25% | Quick plasma prothrombin time [27]: 30% | Creatinine [28]: 646 μmols/l | Fibrinogen I [28]: 4.80 g/L | Granulocytes [28]: 7905 | Platelets [28]: 241000 | Quick plasma prothrombin time [28]: 85% | Weight [28]: 5.31 kg | Creatinine [29]: 265 μmols/l | Fibrinogen I [29]: 3.85 g/L | Granulocytes [29]: 3550 | Platelets [29]: 114000 | Quick plasma prothrombin time [29]: 90% | Creatinine [30]: 118 μmols/l | Fibrinogen I [30]: 2.60 g/L | Granulocytes [30]: 722 | Platelets [30]: 312000 | Quick plasma prothrombin time [30]: 100% | Creatinine [31]: 97 μmols/l | Fibrinogen I [31]: 2.00 g/L | Granulocytes [31]: 4872 | Platelets [31]: 366000 | Quick plasma prothrombin time [31]: 100% | Weight [31]: 5.6 kg | Creatinine [32]: 104 μmols/l | Fibrinogen I [32]: 2.25 g/L | Granulocytes [32]: 10752 | Platelets [32]: 457000 | Quick plasma prothrombin time [32]: 95% | Weight [32]: 5.9 kg | Creatinine [33]: 94 μmols/l | Fibrinogen I [33]: 1.50 g/L | Granulocytes [33]: 4731 | Platelets [33]: 299000 | Quick plasma prothrombin time [33]: 95% | Weight [33]: 6.33 kg | toxicity (in words) (baboons): Extremely low toxicity
